In PubChem BioAssay AID248 (DTP/NCI, 2004):
Several values for one entry are separate records, joined by “and”; a condition that tells them apart may be missing. Equal entries are not always repeated. Inconclusive results and toxic doses are left out. No stated cut-off is given here; in the data, active means T/C of 150% or more; inactive means T/C below 125%.

Tested on: L1210 leukemia ip in BDF1 mice, survival T/C
Test: NCI In Vivo Anticancer Drug Screen. Data for tumor model L1210 Leukemia (intraperitoneal) in B6D2F1 (BDF1) mice
Conditions: endpoint: mean survival time, higher = longer survival
Outline: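 Value reflects the ratio of survival in compound-treated mice to survival in vehicle-treated controls, with both groups carrying the same transplanted tumor.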

[1] = dose: 25.0 mg/kg/injection, schedule: Q01DX009 (ip), vehicle: saline with Tween-80
[2] = dose: 50.0 mg/kg/injection, schedule: Q01DX009 (ip), vehicle: saline with Tween-80
[3] = dose: 50.0 mg/kg/injection, schedule: Q04DX003 (ip), vehicle: saline with Tween-80
[4] = dose: 100.0 mg/kg/injection, schedule: Q01DX009 (ip), vehicle: saline with Tween-80
[5] = dose: 100.0 mg/kg/injection, schedule: Q04DX003 (ip), vehicle: saline with Tween-80
[6] = dose: 200.0 mg/kg/injection, schedule: Q04DX003 (ip), vehicle: saline with Tween-80
[7] = dose: 400.0 mg/kg/injection, schedule: Q04DX003 (ip), vehicle: saline with Tween-80
[8] = dose: 100.0 mg/kg/injection, schedule: Q04DX003 (ip), vehicle: Klucel (hydroxypropylcellulose) (HPC)
[9] = dose: 200.0 mg/kg/injection, schedule: Q04DX003 (ip), vehicle: Klucel (hydroxypropylcellulose) (HPC)
[10] = dose: 400.0 mg/kg/injection, schedule: Q04DX003 (ip), vehicle: Klucel (hydroxypropylcellulose) (HPC)
[11] = dose: 200.0 mg/kg/injection, schedule: Q01DX009 (ip), vehicle: saline with Tween-80
[12] = dose: 400.0 mg/kg/injection, schedule: Q01DX009 (ip), vehicle: saline with Tween-80
[13] = dose: 100.0 mg/kg/injection, schedule: Q04DX003 (ip), vehicle: saline

Measured: T/C

CN1CCN(C(=O)Cc2c[nH]c3ccccc23)CC1
inactive: dose: 6.25 mg/kg/injection, schedule: Q01DX009 (ip), vehicle: saline with Tween-80 104 % of control | dose: 12.5 mg/kg/injection, schedule: Q01DX009 (ip), vehicle: saline with Tween-80 100 % of control | [1] 120 % of control and 91 % of control | dose: 25.0 mg/kg/injection, schedule: Q04DX003 (ip), vehicle: saline with Tween-80 100 % of control | [2] 95 % of control and 117 % of control | [3] 102 % of control | [4] 115 % of control and 88 % of control | [5] 103 % of control and 108 % of control

CN(C)C(=O)C(=O)C1C=Cc2ccccc21 (stereo not drawn)
inactive: [5] 93 % of control | [6] 88 % of control | [7] 102 % of control

N=C(N)c1ccc(-n2cc3cc(C(=N)N)ccc3n2)cc1
inactive: dose: 6.25 mg/kg/injection, schedule: Q04DX003 (ip), vehicle: saline 96 % of control and 110 % of control | dose: 12.5 mg/kg/injection, schedule: Q04DX003 (ip), vehicle: saline 100 % of control | dose: 25.0 mg/kg/injection, schedule: Q04DX003 (ip), vehicle: saline 106 % of control and 91 % of control

C=C(C)c1cc2c(cc1O)OCC2C (stereo not drawn)
inactive: dose: 50.0 mg/kg/injection, schedule: Q01DX009 (ip), vehicle: Klucel (hydroxypropylcellulose) (HPC) 101 % of control | dose: 100.0 mg/kg/injection, schedule: Q01DX009 (ip), vehicle: Klucel (hydroxypropylcellulose) (HPC) 92 % of control and 96 % of control | [8] 107 % of control | dose: 200.0 mg/kg/injection, schedule: Q01DX009 (ip), vehicle: Klucel (hydroxypropylcellulose) (HPC) 86 % of control and 89 % of control | [9] 94 % of control | dose: 400.0 mg/kg/injection, schedule: Q01DX009 (ip), vehicle: Klucel (hydroxypropylcellulose) (HPC) 96 % of control | [10] 94 % of control

COc1cc(Cl)ccc1N=CC(=O)c1ccc(C)cc1
inactive: dose: 12.5 mg/kg/injection, schedule: Q04DX002 (ip), vehicle: Klucel (hydroxypropylcellulose) (HPC) 94 % of control | dose: 25.0 mg/kg/injection, schedule: Q04DX002 (ip), vehicle: Klucel (hydroxypropylcellulose) (HPC) 87 % of control | dose: 50.0 mg/kg/injection, schedule: Q04DX002 (ip), vehicle: Klucel (hydroxypropylcellulose) (HPC) 115 % of control

FC(F)=C(F)I
inactive: dose: 50.0 mg/kg/injection, schedule: Q01DX005 (ip), vehicle: other 102 % of control | dose: 100.0 mg/kg/injection, schedule: Q01DX005 (ip), vehicle: other 87 % of control | dose: 100.0 mg/kg/injection, schedule: Q04DX002 (ip), vehicle: other 98 % of control | dose: 200.0 mg/kg/injection, schedule: Q01DX005 (ip), vehicle: other 94 % of control | dose: 200.0 mg/kg/injection, schedule: Q04DX002 (ip), vehicle: other 104 % of control

O=C1C(=O)c2ccccc2C([O-])=C1[n+]1ccccc1
inactive: [2] 97 % of control | [3] 103 % of control | [4] 95 % of control | [5] 97 % of control | [11] 93 % of control | [6] 98 % of control

[O-][n+]1onc(-c2ccccc2)c1-c1ccccc1
inactive: [8] 105 % of control | [9] 108 % of control | [10] 108 % of control

O=C(CCl)NCC(NC(=O)CCl)C(=O)O (stereo not drawn)
inactive: dose: 100.0 mg/kg/injection, schedule: Q04DX002 (ip), vehicle: saline 115 % of control | dose: 200.0 mg/kg/injection, schedule: Q04DX002 (ip), vehicle: saline 105 % of control | dose: 400.0 mg/kg/injection, schedule: Q04DX002 (ip), vehicle: saline 112 % of control

CC(=O)NC1C(OS(=O)(=O)c2ccc(C)cc2)C(NC(C)=O)C(OC(C)=O)C(OC(C)=O)C1OC(C)=O (stereo not drawn)
inactive: [4] 102 % of control | [11] 109 % of control | [12] 100 % of control

Cc1cc(C)c(N(CC(=O)O)S(=O)(=O)c2ccccc2)c(C)c1Cl
inactive: dose: 50.0 mg/kg/injection, schedule: Q01DX001 (ip), vehicle: Klucel (hydroxypropylcellulose) (HPC) 100 % of control | dose: 100.0 mg/kg/injection, schedule: Q01DX001 (ip), vehicle: Klucel (hydroxypropylcellulose) (HPC) 86 % of control | dose: 200.0 mg/kg/injection, schedule: Q01DX001 (ip), vehicle: Klucel (hydroxypropylcellulose) (HPC) 91 % of control

CCn1c(C)nccc1=O
inactive: dose: 37.5 mg/kg/injection, schedule: Q01DX001 (ip), vehicle: saline 101 % of control | dose: 75.0 mg/kg/injection, schedule: Q01DX001 (ip), vehicle: saline 101 % of control | dose: 150.0 mg/kg/injection, schedule: Q01DX001 (ip), vehicle: saline 100 % of control

COc1cc(CC#N)ccc1C
inactive: dose: 12.5 mg/kg/injection, schedule: Q01DX009 (ip), vehicle: alcohol 104 % of control | dose: 25.0 mg/kg/injection, schedule: Q01DX009 (ip), vehicle: alcohol 98 % of control | dose: 50.0 mg/kg/injection, schedule: Q01DX009 (ip), vehicle: alcohol 101 % of control

CC(C)([NH-])CO.CC(C)([NH-])CO.[Cl][Cd][Cl]
inactive: dose: 3.13 mg/kg/injection, schedule: Q01DX009 (ip), vehicle: saline sonified 98 % of control | dose: 5.0 mg/kg/injection, schedule: Q01DX009 (ip), vehicle: saline 96 % of control | dose: 6.25 mg/kg/injection, schedule: Q01DX009 (ip), vehicle: saline sonified 96 % of control | dose: 6.25 mg/kg/injection, schedule: Q04DX003 (ip), vehicle: saline sonified 95 % of control | dose: 10.0 mg/kg/injection, schedule: Q01DX009 (ip), vehicle: saline 100 % of control | dose: 10.0 mg/kg/injection, schedule: Q04DX003 (ip), vehicle: alcohol 93 % of control | dose: 12.5 mg/kg/injection, schedule: Q01DX009 (ip), vehicle: saline sonified 98 % of control | dose: 12.5 mg/kg/injection, schedule: Q04DX003 (ip), vehicle: saline sonified 92 % of control | dose: 20.0 mg/kg/injection, schedule: Q04DX003 (ip), vehicle: alcohol 89 % of control

OC(c1ccccc1)(c1ccccc1)C1CCc2cc3ccccc3nc21 (stereo not drawn)
inactive: [2] 95 % of control | [4] 98 % of control | [11] 95 % of control

O=S(=O)(NC1CCc2ccccc21)c1ccccc1 (stereo not drawn)
inactive: [4] 95 % of control | [11] 90 % of control

CC(C)CC(Br)C(=O)NC(CC(C)C)C(=O)O (stereo not drawn)
inactive: [4] 96 % of control | [11] 88 % of control | [12] 92 % of control

Nc1nc(N)c(N=Nc2ccc([As](=O)(O)O)c(O)c2)c(N)n1
inactive: dose: 100.0 mg/kg/injection, schedule: Q01DX001 (ip), vehicle: saline 92 % of control | dose: 200.0 mg/kg/injection, schedule: Q01DX001 (ip), vehicle: saline 92 % of control | dose: 400.0 mg/kg/injection, schedule: Q01DX001 (ip), vehicle: saline 100 % of control

O=C(NC(c1ccccc1)C(O)c1ccccc1)c1ccc([N+](=O)[O-])cc1 (stereo not drawn)
inactive: dose: 50.0 mg/kg/injection, schedule: Q01DX001 (ip), vehicle: carboxymethylcellulose (CMC) 96 % of control | dose: 100.0 mg/kg/injection, schedule: Q01DX001 (ip), vehicle: carboxymethylcellulose (CMC) 93 % of control | dose: 100.0 mg/kg/injection, schedule: Q04DX003 (ip), vehicle: acetone 109 % of control | dose: 200.0 mg/kg/injection, schedule: Q01DX001 (ip), vehicle: carboxymethylcellulose (CMC) 93 % of control | dose: 200.0 mg/kg/injection, schedule: Q04DX003 (ip), vehicle: acetone 96 % of control | dose: 400.0 mg/kg/injection, schedule: Q01DX001 (ip), vehicle: carboxymethylcellulose (CMC) 87 % of control | dose: 400.0 mg/kg/injection, schedule: Q04DX003 (ip), vehicle: acetone 103 % of control

CCC(C#N)=C1CCCCC1
inactive: [1] 91 % of control | [2] 99 % of control | [4] 97 % of control | [13] 100 % of control

Cc1cc(C)cc(C(C)C)c1
inactive: [5] 96 % of control | [6] 96 % of control | [7] 93 % of control

Cc1ccc(NC(=O)C2C3CC4OC(=O)C2C4C3)cc1 (stereo not drawn)
inactive: [13] 102 % of control | dose: 200.0 mg/kg/injection, schedule: Q04DX003 (ip), vehicle: saline 108 % of control | dose: 400.0 mg/kg/injection, schedule: Q04DX003 (ip), vehicle: saline 111 % of control

CCN(CC)CCOc1ccc(C(=O)/C(=C/c2ccc3c(c2)OCO3)c2ccccc2)cc1
inactive: dose: 100.0 mg/kg/injection, schedule: Q04DX003 (sc), vehicle: olive oil, sesame oil, peanut oil 103 % of control | dose: 200.0 mg/kg/injection, schedule: Q04DX003 (sc), vehicle: olive oil, sesame oil, peanut oil 97 % of control | dose: 400.0 mg/kg/injection, schedule: Q04DX003 (sc), vehicle: olive oil, sesame oil, peanut oil 100 % of control
